This is an account of results in PMC9697339, “Pulmonary Safety Profile of Esc Peptides and Esc-Peptide-Loaded Poly(lactide-co-glycolide) Nanoparticles: A Promising Therapeutic Approach for Local Treatment of Lung Infectious Diseases” (Pharmaceutics, 2022).

Square brackets hold non-standard residues; d marks the D form. Peptide text beside a SMILES is read from it.

The subject of series [1] is lungs of healthy CD1 mice. Put plainly: Lung gene expression (RNA-seq) after intratracheal instillation. The note with it: i.t. 0.1 mg/kg (20 μM), 24 h, vs PBS-treated animals. It counts as in vivo, mouse. The procedure:
All animal experiments were carried out based on a protocol (n. 20087639) approved by the Institutional Animal Care and Use Committee of the University of Pittsburgh according to the National Institutes of Health (NIH) guide for the care and use of laboratory animals. Seven-week-old female wild-type CD1 mice were anesthetized by isoflurane inhalation and instilled intratracheally with 50 µL of peptide solution (0.1 mg/kg, i.e., 20 μM) or PVA-PLGA NP suspension (either bare NPs or NPs loaded with each peptide at 0.1 mg/kg), in PBS. Control mice were given 50 µL of PBS without peptide. After 24 h, mice were euthanized for lung tissue isolation to extract RNA for differential expression analysis (sequencing work was performed by Novogene US Marketing).

Series [2] deals with CD1 mice. Description: Mouse toxicity: histopathology after intratracheal instillation. It counts as in vivo. The method, then:
Five-week-old female wild-type CD1 mice were anesthetized by isoflurane inhalation and instilled intratracheally with 1.5 mg/kg (corresponding to 300 μM) of Esc(1-21)-1c in the free or encapsulated form in 50 μL of PBS. Mice instilled with 50 μL of PBS or bare PVA-PLGA NPs were included for control. […] Tissues were fixed in situ with 4% paraformaldehyde for 10 min with open chest cavity. They were then embedded in paraffin, and 5 µm-thick tissue slices were prepared by staining in hematoxylin and eosin and analyzed for pathological severity. In parallel, another group of seven animals was anesthetized by isoflurane inhalation and instilled intratracheally with escalating concentrations up to 7 mg/kg Esc(1-21)-1c in 50 μL of PBS and monitored for survival to determine the MTDs.

The conditions of series [3]: cited from earlier work. From the text: This last feature is not shown by any traditional antibiotic and is expected to accelerate the healing of a damaged lung epithelium, especially in CF lungs, where wound-healing processes are highly compromised. Interestin ...
Series [4] is described as follows: Stability in bronchoalveolar lavage fluid (BAL). It counts as in vitro ADME, mouse. The method, then:
Bronchoalveolar lavage fluid (BAL) was collected from male and female C57BL/6 mice (4–5 months old) according to the procedure described in [31, 32]. Mice were euthanized by means of CO2 narcosis; a small incision at the level of the neck was made and a blunt needle connected to a syringe was inserted into the trachea. Then, lungs were washed with 1 mL of sterile PBS. BAL samples from each mouse were pooled, centrifuged at 1000 rpm (corresponding to […]) for 5 min, and stored at −80 °C. The supernatant was used for stability tests.
Peptides were dissolved in 400 µL of PBS at a concentration of 300 µM, and added to an equal volume of BAL at a final concentration of 150 µM. At different time points, 150 μL aliquots were withdrawn and added to 500 µL of acetonitrile, and then centrifuged. The supernatants were diluted with 160 μL of 0.1% trifluoroacetic acid (TFA)—water and analyzed by RP-HPLC and mass spectrometry. Liquid chromatography was performed on a Phenomenex Jupiter C18 analytical column (300 Å, 5 μm, 250 × 4.6 mm) in a 30 min gradient, using 0.1% TFA in water as solvent A and acetonitrile as solvent B. Mass spectrometry analysis of diluted samples was performed with a Bruker Daltonic-ultraflex-matrix-assisted laser desorption ionization tandem time-of-flight (MALDI-TOF/TOF) mass spectrometer.

Series [5] has as its system CD1 mice. Description: Maximum tolerated dosage (MTD) and therapeutic index. It counts as in vivo, mouse. The method, then:
Five-week-old female wild-type CD1 mice were anesthetized by isoflurane inhalation and instilled intratracheally with 1.5 mg/kg (corresponding to 300 μM) of Esc(1-21)-1c in the free or encapsulated form in 50 μL of PBS. Mice instilled with 50 μL of PBS or bare PVA-PLGA NPs were included for control. After 1 day and 14 days, mice were euthanized for tissue isolation and examined for histopathology. Tissues were fixed in situ with 4% paraformaldehyde for 10 min with open chest cavity. They were then embedded in paraffin, and 5 µm-thick tissue slices were prepared by staining in hematoxylin and eosin and analyzed for pathological severity. In parallel, another group of seven animals was anesthetized by isoflurane inhalation and instilled intratracheally with escalating concentrations up to 7 mg/kg Esc(1-21)-1c in 50 μL of PBS and monitored for survival to determine the MTDs.

With `CC[C@H](C)[C@H](NC(=O)CN)C(=O)N[C@@H](Cc1ccccc1)C(=O)N[C@@H](CO)C(=O)N[C@@H](CCCCN)C(=O)N[C@@H](CC(C)C)C(=O)N[C@@H](C)C(=O)NCC(=O)N[C@@H](CCCCN)C(=O)N[C@@H](CCCCN)C(=O)N[C@H](C(=O)N[C@@H](CCCCN)C(=O)N[C@@H](CC(N)=O)C(=O)N[C@H](CC(C)C)C(=O)N[C@@H](CC(C)C)C(=O)N[C@H](C(=O)N[C@H](CO)C(=O)NCC(=O)N[C@@H](CC(C)C)C(=O)N[C@@H](CCCCN)C(=O)NCC(N)=O)[C@@H](C)CC)[C@@H](C)CC` [Esc(1-21)-1c] (H-GIFSKLAGKKIKN[dL]LI[dS]GLKG-NH2), in series [1], the “Log2FC, gene Chil1 (up)” value is 34.248; the “Log2FC, gene Dynlt1f (up)” value is 19.702; the “Log2FC, gene Eif4a-ps4 (up)” value is 17.867; the “Log2FC, gene Rpl26 (up)” value is listed as 20.049. The “Log2FC, gene Snhg11 (down)” value in series [1] is recorded as −1.949. In addition, the “lung histology: inflammatory response or lung tissue damage” value in the series with CD1 mice [2] (CD1 mice, i.t. 1.5 mg/kg (~300 µM) peptide free or encapsulated, or corresponding amount of bare NPs, 1 day and 14 days, H&E) is recorded as “did not detect any inflammatory response”. Further, the “histology of other organs (liver and kidneys)” value with CD1 mice [2] (CD1 mice, i.t. 1.5 mg/kg free or encapsulated, 1 day and 14 days, vs control) is given as “no visible tissue injury, necrosis, or alteration in cell density”. For the same molecule, the “histology of liver, spleen and kidneys” value in the series with CD1 mice [2] (mice, i.t. 7 mg/kg, 48 h, vs control) is “no alteration in the tissue structure”. Moreover, in the series with CD1 mice [2] (mice, i.t. 7 mg/kg, within 48 h, vs PBS-treated mice), the “lung histopathology: recruitment of inflammatory cells” value was “did not reveal significant recruitment of inflammatory cells”. The “resistance to enzymatic degradation compared with Esc(1-21)” value in series [3] is on record as “more resistant to enzymatic degradation”. Moreover, the “time in BAL at which the peak of the full-length peptide (2185 Da) is still detected” value in series [4] (mouse (C57BL/6) BAL supernatant mixed 1:1 with peptide in PBS, 300 μM (method: final 150 µM), time points 6 and 24 h, acetonitrile work-up, RP-HPLC C18 and MALDI-TOF/TOF) was at least 24 h. Moreover, in series [4] (mouse BAL, high peptide concentration (as for 7 mg/kg), mass spectra (Figure S5)), the “time of incubation with BAL after which the full-length peptide (2185 Da) is detectable” value is recorded as at least 48 h. Moreover, the range of motion result with CD1 mice [5] (1 h and 24 h after i.t. instillation at 7 mg/kg) is reported as “maintained the same range of motion”. Also, the “maximum tolerated dosage (highest dosage tested, well-tolerated)” value with CD1 mice [5] (i.t. instillation, increasing concentrations from 1.5 to 7 mg/kg in 50 μL PBS, survival monitored for 14 days) is at least 7 mg/kg. The survival entry in the series on CD1 mice [5] (i.t. up to 7 mg/kg, monitored for 14 days) is given as “remained viable for the entire duration of the experiment”.
